Test results: patent US20250302720A1, “PEPTIDE-BASED HAIR TREATMENT” (Sederma, priority 2020, published 2025)
Residues, ends and D or L forms follow the SMILES beside them.

How the values were obtained:
CREB = assay: Expression of melanogenesis genes in NHM (qRTPCR): CREB; assay type: cell-based, human; settings: 72 h, vs control, n = 4
Description: NHM are cultivated and brought into contact with the peptide according to the invention or its solvent. At the end of 72 h of contact, the melanocytes are crushed, and the mRNAs are recovered, converted into cDNA which are analyzed by qRTPCR, to estimate the changes in the expression level of the mRNAs. The expression of the following genes has been studied: MITF, TYRP1 and CREB.

[1] = tested on: Normal human skin melanocytes (NHM); assay: Melanin production by NHM after 10 days; assay type: cell-based; settings: vs control, n = 4
Description: Normal human skin melanocytes (NHM), little or moderately melanin producing are used. These cells are cultured and brought into contact for 10 days with the peptide according to the invention at different concentrations or with its solvent in equivalent concentration (control). Culture media are changed every 2-3 days. After this contact, the cell mats are crushed, and the melanin is extracted from the cells. The melanin quantity is evaluated spectrophotometrically at 490 nm, using a standard range previously established from a melanin solution. Protein assay using the Bicinchoninic Acid (BCA) method is used to estimate the cell quantity to homogenize the obtained data.

[2] = tested on: melanocyte dendrites (NHM); assay: Length of melanocyte dendrites (antibody labelling, image analysis); assay type: cell-based, human; settings: 48 hours, vs control, n = 3
Description: The cells are brought into contact with the peptide according to the invention for 48 hours. Then the melanocyte layers, once rinsed, are labeled using an antibody. The area occupied by the dendrites are obtain by image analysis on the photos taken, a parameter converted into the relative dendrite length/100 cells. At the same time, the cell nuclei are counterstained using Hoescht 33258 fluorescent dye to estimate the cell number and to harmonize the data.

Compound: CCCCCCCCCCCCCCCC(=O)N1CCC[C@H]1C(=O)N1CCC[C@H]1C(=O)O [Pal-PP-OH, palmitoyl-prolyl-proline] (HELM PEPTIDE1{[CCCCCCCCCCCCCCCC(=O)[*:2]].P.P}$$$$V2.0)
- variation in the expression of CREB gene (CREB; 10 ppm): +46%; p < 0.01
- variation in the expression of CREB gene (CREB; 12.5 ppm): +56%; p < 0.01
- Melanin concentration, Variation (%) ([1]; 5 ppm, moderately pigmented (§) NHM): +48%; p < 0.01
- Melanin concentration, Variation (%) ([1]; 5 ppm, poorly pigmented (§§) NHM): +4%; nsd
- Melanin concentration, Variation (%) ([1]; 10 ppm, moderately pigmented (§) NHM): +123%; p < 0.01
- Melanin concentration, Variation (%) ([1]; 10 ppm, poorly pigmented (§§) NHM): +81%; p < 0.01
- Melanin concentration, Variation (%) ([1]; 12.5 ppm, moderately pigmented (§) NHM): +223%; p < 0.01
- Melanin concentration, Variation (%) ([1]; 12.5 ppm, poorly pigmented (§§) NHM): +113%; p < 0.01
- Lenght of the dendrites, Variation (%) ([2]; 5 ppm): +20%; p < 0.01
- Lenght of the dendrites, Variation (%) ([2]; 10 ppm): +33%; p < 0.01
- Lenght of the dendrites, Variation (%) ([2]; 15 ppm): +57%; p < 0.01
